According to US20120010177A1, “MicroRNA Modulators and Method for Identifying And Using The Same” (The Wistar Institute / North Carolina State University, priority 2008, published 2012):

Test system: HEK293T (human embryonic kidney) cells
Assay: Cell viability assay, HEK293T cells
Type: cell-based
Conditions: 10 μM Compound
Description: (§1) In these assays, A172 cells (glioblastoma cells) were contacted with a miR-21 inhibitor either alone or in combination with a conventional antiproliferative agent (i.e., 5-fluorouracil or curcumin). At the concentrations indicated, no toxic effects on HEK293T (human embryonic kidney) cells were observed.

Row | Compound | Cell Viability HEK293T Cells
1 | O=C1c2cc3c(cc2-c2[nH]c(=O)c4ccccc4c21)OCO3 [Compound 5] | 79%
2 | COc1ccc2c(c1N)CCC1C2CC[C@]2(C)C(=O)CCC12 (stereo partly drawn) [Compound 7] | 86%
3 | C[C@]12CC[C@@H]3c4ccc(O)cc4CC[C@H]3[C@@H]1CCC2=O [estrone, reference compound] | 85%
4 | COc1cc2c(cc1N)C1CC[C@]3(C)C(=O)CCC3C1CC2 (stereo partly drawn) [Compound 8] | 89%

Test system: A172 cells (glioblastoma cells)
Assay: Cell viability assay, A172 cells, alone or with antiproliferative agent
Type: cell-based
Conditions: Homo sapiens, A 172; 10 μM Compound + 5FU 0.5 μM; read-out: Cell Viability A172 Cells, Compound + 5FU (0.5 μM)
Description: as §1

Row | Compound | viability at 10 µM
5 | O=C1c2cc3c(cc2-c2[nH]c(=O)c4ccccc4c21)OCO3 [Compound 5] | 45%
6 | COc1ccc2c(c1N)CCC1C2CC[C@]2(C)C(=O)CCC12 (stereo partly drawn) [Compound 7] | 54%
7 | COc1cc2c(cc1N)C1CC[C@]3(C)C(=O)CCC3C1CC2 (stereo partly drawn) [Compound 8] | 78%

Same assay, conditions: Homo sapiens, A 172; 10 μM Compound + Curcumin 10 μM; read-out: Cell Viability A172 Cells, Compound + Curcumin (10 μM)

Row | Compound | viability at 10 µM
8 | O=C1c2cc3c(cc2-c2[nH]c(=O)c4ccccc4c21)OCO3 [Compound 5] | 40%
9 | COc1ccc2c(c1N)CCC1C2CC[C@]2(C)C(=O)CCC12 (stereo partly drawn) [Compound 7] | 43%
10 | COc1cc2c(cc1N)C1CC[C@]3(C)C(=O)CCC3C1CC2 (stereo partly drawn) [Compound 8] | 57%

Same assay, conditions: Homo sapiens, A 172; 10 μM Compound alone; read-out: Cell Viability A172 Cells, Compound

Row | Compound | viability at 10 µM
11 | O=C1c2cc3c(cc2-c2[nH]c(=O)c4ccccc4c21)OCO3 [Compound 5] | 70%
12 | COc1ccc2c(c1N)CCC1C2CC[C@]2(C)C(=O)CCC12 (stereo partly drawn) [Compound 7] | 87%
13 | COc1cc2c(cc1N)C1CC[C@]3(C)C(=O)CCC3C1CC2 (stereo partly drawn) [Compound 8] | 100%

Test system: miR-21
Assay: High throughput primary miR-21 FLuc reporter assay (concentration-response)
Type: cell-based, human
Conditions: HeLa Luc-miR-21 reporter, 48-hour incubation
Outline: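 HeLa cells carrying a Luc-miR-21 firefly luciferase reporter were treated with compound for 48 h. miR-21 inhibition was read as increased luciferase signal. Concentration-response data were fitted with a four-parameter logistic model.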

Row | Compound | Efficacy
14 | COc1ccc2cc(OCC(=O)NNC(=O)Nc3ccc(C(C)=O)cc3)ccc2c1 [Compound 183, COC1═C/C═C2/C═C(OCC(═O)NNC(═O)NC3═C/C═C(\C═C\3)C(C)═O)\C═C/C\2═C\1] | −65.21
15 | Nc1[nH]cnc2nc(SCC(=O)Nc3ccccc3F)nc1-2 [Compound 154, N\C1═C2/N═C(SCC(═O)NC3═C/C═C\C═C\3F)\N═C\2\N═C/N1] | −64.80
16 | CC(C)c1ccc2nc(SCC(=O)NCC3CCCO3)c(C#N)cc2c1 (stereo not drawn) [Compound 135, CC(C)C1═C/C═C2/N═C(SCC(═O)NCC3CCCO3)\C(═C/C\2═C\1)C#N] | −60.74

Same assay, conditions: HeLa Luc-miR-21 reporter, 48-hour incubation, four parameter logistic fit

Row | Compound | Curve Class
17 | COc1ccc2cc(OCC(=O)NNC(=O)Nc3ccc(C(C)=O)cc3)ccc2c1 [Compound 183, COC1═C/C═C2/C═C(OCC(═O)NNC(═O)NC3═C/C═C(\C═C\3)C(C)═O)\C═C/C\2═C\1] | −2.2
18 | Nc1[nH]cnc2nc(SCC(=O)Nc3ccccc3F)nc1-2 [Compound 154, N\C1═C2/N═C(SCC(═O)NC3═C/C═C\C═C\3F)\N═C\2\N═C/N1] | −2.2
19 | CC(C)c1ccc2nc(SCC(=O)NCC3CCCO3)c(C#N)cc2c1 (stereo not drawn) [Compound 135, CC(C)C1═C/C═C2/N═C(SCC(═O)NCC3CCCO3)\C(═C/C\2═C\1)C#N] | −2.2

Same assay, conditions: HeLa Luc-miR-21 reporter, 48-hour incubation; read-out: AC50

Row | Compound | AC50
20 | COc1ccc2cc(OCC(=O)NNC(=O)Nc3ccc(C(C)=O)cc3)ccc2c1 [Compound 183, COC1═C/C═C2/C═C(OCC(═O)NNC(═O)NC3═C/C═C(\C═C\3)C(C)═O)\C═C/C\2═C\1] | 16.5 µM
21 | Nc1[nH]cnc2nc(SCC(=O)Nc3ccccc3F)nc1-2 [Compound 154, N\C1═C2/N═C(SCC(═O)NC3═C/C═C\C═C\3F)\N═C\2\N═C/N1] | 14.7 µM
22 | CC(C)c1ccc2nc(SCC(=O)NCC3CCCO3)c(C#N)cc2c1 (stereo not drawn) [Compound 135, CC(C)C1═C/C═C2/N═C(SCC(═O)NCC3CCCO3)\C(═C/C\2═C\1)C#N] | 5.85 µM

Same assay, conditions: Homo sapiens

Row | Compound | AC50
23 | COc1ccc(-c2c/c(=N\CC(=O)O)c3ccccc3o2)cc1.[O-][Cl+3]([O-])([O-])O [Compound 263] | 3.69 µM

Same assay, conditions: Homo sapiens, HeLa, 48 h, HeLa Luc-miR-21 reporter, 48-hour incubation; read-out: AC50

Row | Compound | AC50
24 | N#CC1Cc2cc3c(cc2N=C1SCC(=O)N1CCOCC1)OCO3 (stereo not drawn) [Compound 121] | 0.66 µM
25 | Nc1nc(Nc2ccccc2)nc(C(F)(F)F)n1 [Compound 67] | 16.5 µM
26 | COc1cccc(-n2nnc(-c3nc(-c4cccs4)no3)c2N)c1 [Compound 13] | 1.04 µM
27 | CC(C)c1nnc(NC(=O)COc2ccccc2[N+](=O)[O-])s1 [Compound 179] | 9.27 µM
28 | COc1ccc(NC(=O)C/C(C)=N/NC(=O)c2ccccn2)c(OC)c1 [Compound 187] | 1.85 µM
29 | CSc1nsc(SCC(=O)Nc2ccccc2F)n1 [Compound 158] | 14.7 µM
30 | O=C(c1ccc(Cl)cc1)n1nc(-c2ccccc2)nc1NCc1ccco1 [Compound 36] | 14.7 µM
31 | Cc1cc(C)n2c(SCc3ccccc3Cl)nnc2n1 [Compound 52] | 16.5 µM
32 | CCN(CC)C(=O)CS/C(=N/C#N)Nc1ccccc1F [Compound 155] | 14.7 µM
33 | CCc1nonc1NC(=O)c1oc2ccccc2c1C [Compound 79] | 14.7 µM
34 | Cc1cccc(-n2nnc(-c3nc(-c4cccs4)no3)c2N)c1 [Compound 11] | 0.33 µM
35 | Cc1ccc(-c2nsc(SCC(=O)Nc3ccc4c(c3)OCO4)n2)cc1 [Compound 161] | 16.5 µM
36 | Cc1ccc(Nc2ncnc(N)n2)cc1C [Compound 61] | 13.1 µM
37 | O=C(COc1ccccc1[N+](=O)[O-])N/N=C/c1ccc(O)cc1 [Compound 172] | 11.7 µM
38 | Cc1ccc(SCC(=O)Nc2ccc3oc(-c4ccc(F)cc4)nc3c2)cc1 [Compound 140] | 7.36 µM
39 | C/C(CC(=O)NC(C)(C)C)=N\NC(=O)c1ccccc1N [Compound 200] | 5.21 µM
40 | COc1ccc(-c2noc(-c3nnn(-c4cc(C)ccc4C)c3N)n2)cc1 [Compound 18] | 1.47 µM
41 | CC(C)COc1ccc(C(=O)Nc2cc(-c3ccccc3)no2)cc1 [Compound 88] | 4.65 µM
42 | Cc1ccc(-c2csc(NC(=O)CSc3nc4ccccc4o3)n2)cc1 [Compound 147] | 11.7 µM
43 | N#CC1=C(SCC(=O)Nc2ccccc2)NC(=O)CC1c1ccc(O)cc1 (stereo not drawn) [Compound 136] | 6.56 µM
44 | CCc1nonc1NC(=O)c1oc2cc(C)c(C)cc2c1C [Compound 74] | 5.85 µM
45 | COc1ccc(-c2csc(NC(=O)COC(=O)c3ccc(Br)o3)n2)cc1 [Compound 177] | 2.93 µM
46 | NC(=O)c1ccccc1NC(=O)c1ccc(-c2ccc(Br)cc2)o1 [Compound 105] | 1.17 µM

Row | Compound | AC50
47 | CC(C)c1ccc(CNc2nc(-c3ccco3)nn2C(=O)c2ccc([N+](=O)[O-])cc2)cc1 [Compound 31] | 2.07 µM
48 | O=C(CCc1ccccc1)Nc1cccnc1Cl [Compound 96] | 13.1 µM
49 | O=C(CSc1nnc(-c2ccccn2)o1)Nc1ccccc1C(F)(F)F [Compound 142] | 9.27 µM
50 | COc1nc(NCCO)nc(Nc2ccccc2F)n1 [Compound 59] | 4.65 µM
51 | CC1=NN(C(=O)c2ccc(C)o2)C(O)(c2ccccc2)C1 (stereo not drawn) [Compound 231] | 16.5 µM
52 | COc1ccc(NC(=O)CSc2nc(SC)ns2)c(OC)c1 [Compound 125] | 2.07 µM
53 | CC(=O)N1N=C(c2ccc(C)cc2)OC1c1cccnc1 (stereo not drawn) [Compound 228] | 16.5 µM
54 | C/C(CC(=O)NC(C)(C)C)=N\NC(=O)c1ccco1 [Compound 205] | 6.56 µM
55 | COc1ccc(NC(=O)C/C(C)=N/NC(=O)c2cccs2)c([N+](=O)[O-])c1 [Compound 190] | 1.85 µM
56 | C/C(=N\NC(=O)c1nn(C)cc1Br)c1ccc(NC(=O)c2ccncc2)cc1 [Compound 234] | 18.5 µM
57 | COc1cccc(NC(=O)Cn2nnc(-c3nc(-c4ccccc4)no3)c2N)c1 [Compound 24] | 10.4 µM
58 | O=C(CSc1nnc(-c2ccccn2)o1)Nc1cccc(Cl)c1 [Compound 124] | 1.85 µM
59 | Cc1cc(NC(=O)CSc2nc3ccsc3c(=O)n2NC(=O)c2ccccc2)no1 [Compound 133] | 5.21 µM
60 | COCc1cc(C)nc(SCC(=O)Nc2ccc3c(c2)OCCO3)c1C#N [Compound 145] | 11.7 µM
61 | Cc1ccc(Nc2c(-c3ccc(C)o3)nc3cnccn23)cc1 [Compound 244] | 16.5 µM
62 | O=C(CSc1nnc(-c2cccnc2)o1)Nc1cccc(Cl)c1 [Compound 149] | 13.1 µM
63 | CN(C(=O)CSc1nnc(-c2ccccc2F)o1)C1CCCCC1 [Compound 143] | 9.27 µM
64 | CCCC(=O)N(CCN1CCOCC1)c1nc2cc(C)c(C)cc2s1 [Compound 120] | 7.36 µM
65 | Nc1c(C(=O)Nc2ccccc2Br)sc2nc(-c3cccs3)ccc12 [Compound 82] | 7.36 µM
66 | Cc1cc(Cl)c2oc(C(=O)N[C@H]3CC[C@H](O)CC3)c(C)c2c1 [Compound 80] | 16.5 µM
67 | COCc1cc(C)nc2sc(C(=O)Nc3ccccc3O)c(N)c12 [Compound 86] | 13.1 µM
68 | C#Cc1cccc(NC(=O)CSc2nnc(-c3ccc(C(F)(F)F)cn3)o2)c1 [Compound 130] | 4.14 µM

Same assay, conditions: Homo sapiens, Table 12 singletons; read-out: AC50

Row | Compound | AC50
69 | c1ccc(-c2onc3cc4c(cc23)OCCO4)cc1 [Compound 257] | 2.07 µM
70 | O=C1C(Nc2ccccc2)=C2CCCC=C2N1c1ccccc1 [Compound 267] | 4.14 µM
71 | COC(=O)c1ccc(CN2C(=O)NC3(CCCCC3)C2=O)cc1 [Compound 320] | 16.5 µM
72 | c1ccc(C2=Nn3c(nnc3-c3cc(-c4ccccc4)[nH]n3)SC2)cc1 [Compound 265] | 3.69 µM
73 | Cc1ccc(/N=C(/c2cccs2)N2CCOCC2)cc1 [Compound 304] | 14.7 µM
74 | Cc1ccc(-c2nc3ccccc3o2)cc1NC(=S)NC(=O)c1cc2ccccc2o1 [Compound 258] | 2.93 µM
75 | Cn1nc2c3ccccc3n(Cc3ccccc3)c2nc1=S [Compound 311] | 14.7 µM
76 | C[C@]12CC[C@H]3C(=CCc4cc(O)ccc43)[C@@H]1CCC2=O [Compound 281] | 7.36 µM
77 | Nc1c(-c2ccccc2)n[nH]c1-c1ccccc1 [Compound 262] | 3.29 µM
78 | COc1ccc(-c2csc(NC(=O)COC(=O)c3ccc(Br)o3)n2)cc1 [Compound 259] | 2.93 µM
79 | Cc1c(-c2nc(-c3ccc(C(F)(F)F)cc3)no2)n(C)oc1=O [Compound 250] | 0.29 µM
80 | CCN(CC)C(=O)CS/C(=N/C#N)Nc1ccccc1F [Compound 306] | 14.7 µM
81 | CCC(C)NC(=O)CCCn1c(=O)c2cccn2c2ccccc21 (stereo not drawn) [Compound 251] | 0.93 µM
82 | CCc1cccc(CC)c1N(COC)C(=O)Cn1c(CC)nc2ccccc21 [Compound 307] | 14.7 µM
83 | O=c1c(NCc2cccs2)nccn1-c1ccc(F)cc1 [Compound 328] | 16.5 µM
84 | CC1(C)Cc2nc3oc4c(S)ncnc4c3cc2CO1 [Compound 295] | 13.1 µM
85 | CCCCC12CN3CCN(CC(C3)/C1=N/NC(=O)c1ccccc1N)C2 [Compound 285] | 9.27 µM
86 | CC(C)N1C(=O)CN(C2CCCCCC2)C(=O)C1c1ccccc1F (stereo not drawn) [Compound 301] | 14.7 µM
87 | COc1ccc(C2Nc3ccccc3C(=O)N2c2ccc(C)cc2)cc1Cn1nc(C)c([N+](=O)[O-])c1C (stereo not drawn) [Compound 347] | 3.09 µM
88 | O=S(=O)(c1ccc(F)cc1)n1ccc(-c2cnc(-c3ccccc3)s2)n1 [Compound 260] | 2.93 µM
89 | COC(=O)c1ccc(Cn2nnc3sc4c(c3c2=O)CCCC4)cc1 [Compound 273] | 6.56 µM
90 | c1ccc(-c2nnc(CN3CCCCC3)o2)cc1 [Compound 327] | 16.5 µM
